According to the NIST ThermoML archive (doi:10.1007/s10765-007-0169-z):

Assays:
[1] = for surface tension liquid-gas: Drop volume; for mass density: 101.33 kPa, Liquid, Pycnometric method
[2] = xn = mol fraction of the nth substance listed; details: Drop volume

CC(C)CCl [1-chloro-2-methylpropane]
[1]
Details	mass density [kg/m3]	surface tension liquid-gas [mN/m]
298.15 K	871.13	21.8
313.15 K	–	19.18

CC(C)CCl [1-chloro-2-methylpropane] + C1CCOC1
[2]
Details	surface tension liquid-gas [mN/m]
298.15 K, x2 = 0.0652	22.25
298.15 K, x2 = 0.1201	22.54
298.15 K, x2 = 0.2392	23.06
298.15 K, x2 = 0.3613	23.53
298.15 K, x2 = 0.4622	23.94
298.15 K, x2 = 0.5682	24.44
298.15 K, x2 = 0.6614	24.9
298.15 K, x2 = 0.7586	25.42
298.15 K, x2 = 0.8408	25.89
298.15 K, x2 = 0.9257	26.45
298.15 K, x2 = 0.9662	26.75
313.15 K, x2 = 0.0619	19.77
313.15 K, x2 = 0.1268	20.25
313.15 K, x2 = 0.2531	21
313.15 K, x2 = 0.359	21.53
313.15 K, x2 = 0.4722	22.06
313.15 K, x2 = 0.5669	22.51
313.15 K, x2 = 0.659	22.97
313.15 K, x2 = 0.7539	23.45
313.15 K, x2 = 0.8338	23.88
313.15 K, x2 = 0.9198	24.42
313.15 K, x2 = 0.9751	24.83

CC(C)CCl [1-chloro-2-methylpropane] + C1CCOCC1
[2]
Details	surface tension liquid-gas [mN/m]
298.15 K, x2 = 0.0483	22.18
298.15 K, x2 = 0.1067	22.55
298.15 K, x2 = 0.2075	23.09
298.15 K, x2 = 0.32	23.63
298.15 K, x2 = 0.4148	24.07
298.15 K, x2 = 0.519	24.58
298.15 K, x2 = 0.6219	25.11
298.15 K, x2 = 0.7194	25.65
298.15 K, x2 = 0.8079	26.15
298.15 K, x2 = 0.9077	26.72
298.15 K, x2 = 0.9602	27.04
313.15 K, x2 = 0.0377	19.55
313.15 K, x2 = 0.1032	20.11
313.15 K, x2 = 0.2167	20.92
313.15 K, x2 = 0.3226	21.57
313.15 K, x2 = 0.4213	22.13
313.15 K, x2 = 0.5302	22.74
313.15 K, x2 = 0.6241	23.27
313.15 K, x2 = 0.7134	23.78
313.15 K, x2 = 0.8148	24.37
313.15 K, x2 = 0.9051	24.89
313.15 K, x2 = 0.966	25.22

CCCCCl [1-chlorobutane]
[1]
Details	mass density [kg/m3]	surface tension liquid-gas [mN/m]
298.15 K	880.69	23.29
313.15 K	–	21.58

CCCCCl [1-chlorobutane] + C1CCOC1
[2]
Details	surface tension liquid-gas [mN/m]
298.15 K, x2 = 0.0526	23.45
298.15 K, x2 = 0.1121	23.62
298.15 K, x2 = 0.2436	23.98
298.15 K, x2 = 0.3549	24.29
298.15 K, x2 = 0.4671	24.65
298.15 K, x2 = 0.5624	25
298.15 K, x2 = 0.6678	25.41
298.15 K, x2 = 0.7575	25.79
298.15 K, x2 = 0.84	26.16
298.15 K, x2 = 0.9224	26.58
298.15 K, x2 = 0.9739	26.87
313.15 K, x2 = 0.0654	21.78
313.15 K, x2 = 0.1272	21.95
313.15 K, x2 = 0.25	22.28
313.15 K, x2 = 0.3654	22.59
313.15 K, x2 = 0.4658	22.89
313.15 K, x2 = 0.5586	23.2
313.15 K, x2 = 0.6569	23.56
313.15 K, x2 = 0.7489	23.92
313.15 K, x2 = 0.8401	24.3
313.15 K, x2 = 0.9272	24.69
313.15 K, x2 = 0.9663	24.88

CCCCCl [1-chlorobutane] + C1CCOCC1
[2]
Details	surface tension liquid-gas [mN/m]
298.15 K, x2 = 0.0421	23.43
298.15 K, x2 = 0.1082	23.65
298.15 K, x2 = 0.2121	24.02
298.15 K, x2 = 0.3174	24.41
298.15 K, x2 = 0.4245	24.82
298.15 K, x2 = 0.5222	25.21
298.15 K, x2 = 0.6243	25.63
298.15 K, x2 = 0.7209	26.04
298.15 K, x2 = 0.8105	26.43
298.15 K, x2 = 0.9103	26.88
298.15 K, x2 = 0.9655	27.13
313.15 K, x2 = 0.0319	21.69
313.15 K, x2 = 0.1092	21.95
313.15 K, x2 = 0.208	22.29
313.15 K, x2 = 0.3137	22.66
313.15 K, x2 = 0.4209	23.04
313.15 K, x2 = 0.5149	23.39
313.15 K, x2 = 0.6199	23.8
313.15 K, x2 = 0.717	24.19
313.15 K, x2 = 0.8126	24.59
313.15 K, x2 = 0.9067	24.99
313.15 K, x2 = 0.965	25.24

CC(C)(C)Cl [2-chloro-2-methylpropane]
[1]
Details	mass density [kg/m3]	surface tension liquid-gas [mN/m]
298.15 K	836.45	18.9
313.15 K	–	16.98
